{"source": "patent US6723702B2", "about": "“Use of relaxin treat diseases related to vasoconstriction” (RAS Medical, Inc., priority 2000, dated 2004)", "key": {"female rats": {"tested_on": "female rats", "assay": "rhRLX for 5 days in female rats with infusion of ETB receptor antagonist RES-701-1 or its vehicle", "format": "in vivo, rat", "protocol": "After surgical recovery, an osmotic minipump (model 2ML1, Alza Co., Palo Alto Calif.) containing either recombinant human relaxin (rhRLX; n=9 rats) or vehicle (n=8) was implanted subcutaneously on the back using light ether anesthesia. The infusion rate of rhRLX was 4 μg/hour. Experiments were conducted on day 5 of rhRLX or vehicle administration. MAP and renal function were measured as described above.\nThe technique of urine collection was again reliable. After reaching steady-state, the excretion rates of IN and PAH at baseline were 99±3 and 100±2% of their respective infusions for the rats administered rhRLX, and 100±2 and 99±2% for those given vehicle. Following the determination of baseline MAP and renal function, an infusion of RES-701-1, a selective endothelin type B (ETB) receptor antagonist (Conrad et al. (1999) Am. J. Physiol. 272:F767-F776; and Tanaka et al. (1994) Mol. Pharmacol. 45:724-730), was started at a rate of 10 μg/minute (flow rate 12 μl/minute) through the venous catheter. […] At the end of the experiment, 1.0 ml of blood was collected for determination of serum rhRLX.\nIn an additional three rats each administered rhRLX or vehicle, identical experimental procedures as described above were applied, except that the vehicle for RES-701-1 was infused instead of RES-701-1."}, "[1]": {"tested_on": "human VEGF165, VEGF121, bFGF and HGF transcripts in human cardiac cells", "assay": "Human cardiac cells: quantitative RT-PCR after relaxin treatment in vitro", "format": "cell-based", "from_the_text": "Oligonucleotides were designed to rat or human bFGF, human VEGF165 amino acid or 121 amino acid isoforms, and their respective rat homologues (VEGF164 and VEGF120), and human HGF (for use with the PE Applied Biosystems “GeneAmp PCR System 9600”). Rat and human GAPDH primers and probes were purchased from BioSource International Inc. and PE Applied Biosystems, respectively. Tissue samples and monolayer cells were suspended in RNA STAT-60 (Tel-Test, Inc., Friendswood, Tex.) and processed following vendor instructions. Reverse transcription-polymerase chain reaction (RT-PCR) was performed using either rat or human total RNA as template. 150 ng of total RNA was used for the analysis of VEGF, bFGF and HGF mRNA expression; 10 ng of total RNA was used for GAPDH mRNA expression. Reverse transcription-polymerase chain reaction (RT-PCR) reagents were purchased from PE Biosystems (Foster City, Calif.).\nTo determine if the effects of relaxin observed in the rat were also seen in human cells, total RNA from cardiac cells was extracted following treatment of cells with 1, 10, and 100 ng/ml relaxin for 24 hours. Human cardiac cells were cultured for 24 hours either without or with relaxin (1-100 ng/ml). Untreated cells were incubated for the same 24 hour period under hypoxic (2% O2) conditions. Using 150 ng of total RNA for human VEGF and bFGF transcripts and 10 ng of total RNA for GAPDH transcripts, primer/probe sets were used to generate RT-PCR products for human VEGF 165aa and 121aa isoforns and human bFGF. Data were analyzed using Sequence Detector v1.6.3 software (Applied Biosystems/PE). VEGF and bFGF expression levels are graphed relative to GAPDH transcript levels. Data are shown as means±SEM, where n=3 per treatment group; *p<0.05; Student-Newman-Keuls test. […] Absolute baseline levels of bFGF mRNA transcripts expressed by these cells were approximately 2-fold greater than those of either the VEGF121 or the VEGF165 isoforms. Total RNA from cells incubated under hypoxic conditions was analyzed as a positive control for the stimulation of VEGF isoforms. As predicted, mRNA transcript levels for both VEGF isoforms increased 220% over untreated control levels following 24 hr exposure to hypoxia, as shown in FIG. 6. bFGF expression was not induced by hypoxia. […] Relaxin had no effect on cellular proliferation, as assessed by ^3H-thymidine incorporation, on cellular morphology, or on desmin or vimentin staining patterns."}, "[2]": {"tested_on": "female Swiss Webster mice", "assay": "Matrigel assay of angiogenesis", "format": "in vivo, mouse", "conditions": "100 ng/ml in Matrigel, s.c., three separate studies, vs vehicle", "protocol": "Animals were purchased from Harlan Sprague Dawley (Indianapolis, Ind.) and were housed according to NIH guidelines. Protocols were in compliance with institutional guidelines. Matrigel (Collaborative Biomedical, Bedford, Mass.) was mixed with relaxin to a final concentration of 100 ng/ml, or mixed with the identical volume of citrate buffer, on ice. […] was injected subcutaneously into the flank of female Swiss Webster mice. At 11 days, the Matrigel plugs were harvested, fixed, and stained with H & E (hematoxylin and eosin) for assessment of new blood vessel ingrowth. Vessel growth was scored on a 0-5 scale: 0=no infiltration; 1=minor infiltration; 2 =3-5 cell layers infiltrating only margins of the plug; 3=5-10 cell layers infiltrating margins with some areas of deeper infiltration; <25% of plug infiltrated; 4=Many areas of deep cellular infiltration; 25-50% of plug infiltrated; 5=50-100% of plug infiltrated. Endothelial cells preferentially migrate into the basement membrane matrix.\nThe ability of relaxin to induce new blood vessel growth in vivo was tested in the murine Matrigel system for assessing angiogenesis. Passaniti et al. (1992) Lab. Invest. 67:519-528. […] At 10 days, Matrigel plugs were harvested, processed for histology, and H & E sections scored for vessel ingrowth in blinded fashion. […]"}, "[3]": {"conditions": "rhRLX day 5, V, vehicle for RES-701-1"}}, "data": [{"substance": "rhRLX: recombinant human relaxin, identical in amino acid sequence to the product of the human H2 gene; A chain of 24, B chain of 29 amino acids", "values": [{"measurement": "ERPF", "setting": "female rats; rhRLX day 5, B, baseline", "result": 11220}, {"measurement": "ERVR", "setting": "female rats; rhRLX day 5, B, baseline", "result": 6.67}, {"measurement": "GFR", "setting": "female rats; rhRLX day 5, B, baseline", "result": 3082}, {"measurement": "MAP", "setting": "female rats; rhRLX day 5, B, baseline", "result": "112 ± 7"}, {"measurement": "ERPF", "setting": "female rats; [3]", "result": 10464}, {"measurement": "ERVR", "setting": "female rats; [3]", "result": 6.97}, {"measurement": "GFR", "setting": "female rats; [3]", "result": 3112}, {"measurement": "MAP", "setting": "female rats; [3]", "result": "115 ± 8"}, {"measurement": "ERPF at baseline compared to vehicle infusion", "setting": "female rats; rhRLX for 5 days (FIG. 4)", "result": "significantly increased"}, {"measurement": "ERVR reduction at baseline compared to vehicle infusion", "setting": "female rats; rhRLX for 5 days (FIG. 4)", "result": "20-30%"}, {"measurement": "GFR at baseline compared to vehicle infusion", "setting": "female rats; rhRLX for 5 days (FIG. 4)", "result": "significantly increased"}, {"measurement": "MAP at baseline compared to vehicle infusion", "setting": "female rats; rhRLX for 5 days (FIG. 4)", "result": "not significantly affected"}, {"measurement": "Basic FGF expression, maximum elevation over baseline", "setting": "[1]; 100 ng/ml, 24 hours", "result": 2.2, "unit": "fold"}, {"measurement": "VEGF121 mRNA, maximum increase in expression over untreated controls", "setting": "[1]; 100 ng/ml, 24 hours", "result": 3, "unit": "fold"}, {"measurement": "VEGF165 mRNA, maximum increase in expression over untreated controls", "setting": "[1]; 100 ng/ml, 24 hours", "result": 2.3, "unit": "fold"}, {"measurement": "Transcripts for human HGF", "setting": "[1]; untreated vs relaxin treated cells", "result": "no difference in expression"}, {"measurement": "vessel ingrowth into Matrigel plugs", "setting": "[2]", "result": "significantly more vessel ingrowth"}]}]}
